Here are results for 13 molecules from US20230159496A1, “COMPOUNDS AND METHODS FOR MODULATING SPLICING” (REMIX THERAPEUTICS INC., priority 2020, published 2023).

Structures can show the parent of a compound that is named as a salt. Where two headings read alike, the source gives them in different places. Some results are limits rather than exact numbers.

Common to all, as to assay type: cell-based
The subject of one assay is HTT mRNA. Kind of assay: Splicing assay (RT-qPCR) monitoring HTT canonical junction (CJ) and alternative junction (AJ) mRNA isoforms. Particulars: A673 or K562 cells, 24 h treatment, top dose 10 uM. As for the experimental part: Compounds described herein were used to modulate RNA transcript abundance in cells. The expression of a target mRNA was measured by detecting the formation of an exon-exon junction in the canonical transcript (CJ). A compound mediated exon-inclusion event was detected by observing an increase in formation of a new junction with an alternative exon (AJ). Real-time qPCR assays were used to detect these splicing switches and interrogate the potency of various compounds towards different target genes. A high-throughput real time quantitative PCR (RT-qPCR) assay was developed to measure these two isoforms of the mRNA (CJ and AJ) for an exemplary gene, HTT, together with a control housekeeping gene, GAPDH or GUSB or PPIA, used for normalization. Briefly, the A673 or K562 cell line was treated with various compounds described herein (e.g., compounds of Formula (I)). After treatment, the levels of the HTT mRNA targets were determined from each sample of cell lysate by cDNA synthesis followed by qPCR.
• Cells-to-CT 1-step kit: ThermoFisher A25602, Cells-to-CT lysis reagent: ThermoFisher 4391851C, TaqMan™ Fast Virus 1-Step Master Mix: ThermoFisher 4444436 • GAPDH: VIC-PL, ThermoFisher 4326317E (Assay: Hs99999905_m1)—used for K562/suspension cell lines • GUSB: VIC-PL, ThermoFisher 4326320E (Assay: Hs99999908_m1)—used for K562/suspension cell lines • PPIA: VIC-PL, ThermoFisher 4326316E (Assay: Hs99999904_m1) — used for A673/adherent cell lines
The A673 cell line was cultured in DMEM with 10% FBS. Cells were diluted with full growth media and plated in a 96-well plate (15,000 cells in 100 ul media per well). The plate was incubated at 37° C. with 5% CO2 for 24 hours to allow cells to adhere. An 11-point 3-fold serial dilution of the compounds was made in DMSO then diluted in media in an intermediate plate. Compounds were transferred from the intermediate plate to the cell plate with the top dose at a final concentration of 10 uM in the well. Final DMSO concentration was kept at or below 0.25%. The cell plate was returned to the incubator at 37° C. with 5% CO2 for an additional 24 hours.
The K562 cell line was cultured in IMDM with 10% FBS. For K562, cells were diluted with full growth media and plated in either a 96-well plate (50,000 cells in 50 uL media per well) or a 384-well plate (8,000-40,000 cells in 45 uL media per well). An 11-point 3-fold serial dilution of the compounds were made in DMSO then diluted in media in an intermediate plate. Compound was transferred from the intermediate plate to the cell plate with the top dose at a final concentration of 10 uM in the well. Final DMSO concentration was kept at or below 0.25%. Final volume was 100 uL for 96-well plate and 50 uL for 384-well plate. The cell plate was then placed in an incubator at 37° C. with 5% CO2 for 24 hours.
The cells were then gently washed with 50 uL-100 uL cold PBS before proceeding to addition of lysis buffer. 30 uL-50 uL of room temperature lysis buffer with DNAse I (and optionally RNAsin) was added to each well. Cells were shaken/mixed thoroughly at room temperature for 5-10 minutes for lysis to take place and then 3 uL-5 uL of room temperature stop solution was added and wells were shaken/mixed again. After 2-5 minutes, the cell lysate plate was transferred to ice for RT-qPCR reaction setup. The lysates could also be frozen at −80° C. for later use.
In some cases, a direct lysis buffer was used. An appropriate volume of 3× lysis buffer (10 mM Tris, 150 mM NaCl, 1.5%-2.5% Igepal and 0.1-1 U/uL RNAsin, pH 7.4) was directly added to either K562 or A673 cells in media and mixed by pipetting 3 times. The plates were then incubated at room temperature with shaking/rocking for 20-50 minutes to allow for lysis to take place. After this time, the cell lysate plate was transferred to ice to set up for the RT-qPCR reactions. The lysates could also be frozen at −80° C. for later use. […]
Background: Real-time PCR tracks product formation cycle by cycle.

Another assay concerns HTT CJ mRNA. Nature of the assay: Gene panel canonical junction qPCR assay, HTT. To be noted: decrease in CJ mRNA levels, gene panel; read-out: HTT IC50. As for the experimental part:
(§1) The expression of a target mRNA was measured by detecting the formation of an exon-exon junction in the canonical transcript (CJ). A compound mediated exon-inclusion event was detected by observing an increase in formation of a new junction with an alternative exon (AJ). Real-time qPCR assays were used to detect these splicing switches and interrogate the potency of various compounds towards different target genes. A high-throughput real time quantitative PCR (RT-qPCR) assay was developed to measure these two isoforms of the mRNA (CJ and AJ) for an exemplary gene, HTT, together with a control housekeeping gene, GAPDH or GUSB or PPIA, used for normalization. Briefly, the A673 or K562 cell line was treated with various compounds described herein (e.g., compounds of Formula (I)). After treatment, the levels of the HTT mRNA targets were determined from each sample of cell lysate by cDNA synthesis followed by qPCR. The A673 cell line was cultured in DMEM with 10% FBS. Cells were diluted with full growth media and plated in a 96-well plate (15,000 cells in 100 ul media per well). The plate was incubated at 37° C. with 5% CO2 for 24 hours to allow cells to adhere. An 11-point 3-fold serial dilution of the compounds was made in DMSO then diluted in media in an intermediate plate. Compounds were transferred from the intermediate plate to the cell plate with the top dose at a final concentration of 10 uM in the well. Final DMSO concentration was kept at or below 0.25%. The cell plate was returned to the incubator at 37° C. with 5% CO2 for an additional 24 hours. The K562 cell line was cultured in IMDM with 10% FBS. For K562, cells were diluted with full growth media and plated in either a 96-well plate (50,000 cells in 50 uL media per well) or a 384-well plate (8,000-40,000 cells in 45 uL media per well). An 11-point 3-fold serial dilution of the compounds were made in DMSO then diluted in media in an intermediate plate. Compound was transferred from the intermediate plate to the cell plate with the top dose at a final concentration of 10 uM in the well. Final DMSO concentration was kept at or below 0.25%. Final volume was 100 uL for 96-well plate and 50 uL for 384-well plate. The cell plate was then placed in an incubator at 37° C. with 5% CO2 for 24 hours. The cells were then gently washed with 50 uL-100 uL cold PBS before proceeding to addition of lysis buffer. 30 uL-50 uL of room temperature lysis buffer with DNAse I (and optionally RNAsin) was added to each well. Cells were shaken/mixed thoroughly at room temperature for 5-10 minutes for lysis to take place and then 3 uL-5 uL of room temperature stop solution was added and wells were shaken/mixed again. After 2-5 minutes, the cell lysate plate was transferred to ice for RT-qPCR reaction setup. The lysates could also be frozen at −80° C. for later use. In some cases, a direct lysis buffer was used. An appropriate volume of 3× lysis buffer (10 mM Tris, 150 mM NaCl, 1.5%-2.5% Igepal and 0.1-1 U/uL RNAsin, pH 7.4) was directly added to either K562 or A673 cells in media and mixed by pipetting 3 times. The plates were then incubated at room temperature with shaking/rocking for 20-50 minutes to allow for lysis to take place. After this time, the cell lysate plate was transferred to ice to set up for the RT-qPCR reactions. The lysates could also be frozen at −80° C. for later use. To set up 10 uL RT-qPCR reactions, cell lysates were transferred to 384-well qPCR plates containing the master mix according to the table below. The plates were sealed, gently vortexed, and spun down before the run. The volumes were adjusted accordingly in some instances where the reaction was carried in 20 uL. The table below summarizes the components of the RT-qPCR reactions: The RT-qPCR reaction was performed using a QuantStudio (ThermoFisher) under the following fast cycling conditions. All samples and standards were analyzed at least in duplicate.

Another assay relates to SMN2 CJ mRNA. Nature of the assay: Gene panel canonical junction qPCR assay, SMN2. Particulars: decrease in CJ mRNA levels, gene panel; read-out: SMN2 IC50. As for the experimental part:
as §1

[1] abbreviates: decrease in CJ mRNA (50% response), read-out: HTT CJ AC50.
Setting [2] is: increase in AJ mRNA (50% response), read-out: HTT AJ AC50.

For the molecule `Cc1cn2nc(-c3ccc4c(c3)CCN(C3CCNCC3)C4=O)cc(C)c2n1` [Compound 185, 6-[2,8-dimethylimidazo [1,2-b]pyridazin-6-yl]-2-(piperidin-4-yl) -3,4-dihydroisoquinolin-1-one], the values for the concentration at half-maximal activity (AC50) in the assay on HTT mRNA (setting [1]) and in the assay on HTT mRNA (setting [2]) were 0.1 to 1 µM and 1 to 10 µM, respectively.
Regarding `Cc1cc(-c2ccc3c(=O)n(C4CCN(C)CC4)cnc3n2)cc2cn(C)nc12` [Compound 173, 7-(2,7-dimethyl-2H-indazol-5-yl)-3-(1-methylpiperidin-4-yl)pyrido[2,3-d]pyrimidin-4(3H)-one], the results for the half-inhibitory concentration (IC50) in the assay on HTT CJ mRNA and in the assay with SMN2 CJ mRNA were greater than 10 µM and 1 to 10 µM, respectively. Besides, the AC50 in the assay with HTT mRNA (setting [1]) and with HTT mRNA (setting [2]) was greater than 10 µM throughout.
With `Cc1cn2nc(-c3ccc4c(=O)n(C5CCNCC5)ncc4c3)cc(C)c2n1` [Compound 186, 6-[2,8-dimethylimidazo[1,2-b]pyridazin-6-yl]-2-(piperidin-4-yl)phthalazin-1-one], the concentration at half-maximal activity (AC50) with HTT mRNA (setting [1]) and with HTT mRNA (setting [2]) was less than 0.1 µM each time.
Consider `Cc1cc(-c2ccc3nc(N4CCN(C)CC4)[nH]c(=O)c3c2)cc2cn(C)nc12` [Compound 165, 6-(2,7-dimethyl-2H-indazol-5-yl)-2-(4-methylpiperazin-1-yl)quinazolin-4(3H)-one], for which the IC50 – broadly, the point on the concentration scale where inhibition reaches its midpoint – in the assay on HTT CJ mRNA was greater than 10 µM; with SMN2 CJ mRNA it was 0.1 to 1 µM. Further, the half-maximal activity concentration (AC50) with HTT mRNA (setting [1]) and in the assay on HTT mRNA (setting [2]) was greater than 10 µM in each case.
Regarding `Cc1cc(-c2ccc3c(=O)n(C4CCNCC4)cnc3c2)cc2cn(C)nc12` [Compound 174, 7-(2,7-dimethyl-2H-indazol-5-yl)-3-(piperidin-4-yl)quinazolin-4(3H)-one], the IC50 with HTT CJ mRNA was 0.1 to 1 µM; with SMN2 CJ mRNA it was less than 0.1 µM. Besides, the AC50 in the assay with HTT mRNA (setting [1]) and in the assay on HTT mRNA (setting [2]) was 0.1 to 1 µM each time.
As for `Cn1cc2cc(-n3cnc4cc(C5=CCNCC5)ccc4c3=O)ccc2n1` [Compound 158, 3-(2-methyl-2H-indazol-5-yl)-7-(1,2,3,6-tetrahydropyridin-4-yl)quinazolin-4(3H)-one], the IC50 in the assay with HTT CJ mRNA and with SMN2 CJ mRNA was greater than 10 µM each time. For the same molecule, the AC50 in the assay on HTT mRNA (setting [1]) and with HTT mRNA (setting [2]) was greater than 10 µM throughout.
Turning to `Cc1cn2nc(-c3ccc4c(c3F)CCN(C3CCNCC3)C4=O)cc(C)c2n1` [Compound 188, 6-{2,8-dimethylimidazo[1,2-b]pyridazin-6-yl}-5-fluoro-2-(piperidin-4-yl)-3,4-dihydroisoquinolin-1-one], the concentration at half-maximal activity (AC50) with HTT mRNA (setting [1]) and in the assay on HTT mRNA (setting [2]) was 1 to 10 µM each time.
Regarding `Cn1cc2cc(-n3cnc4cc(N5CCNCC5)ccc4c3=O)ccc2n1` [Compound 153, 3-(2-methyl-2H-indazol-5-yl)-7-(piperazin-1-yl)quinazolin-4(3H)-one], the IC50 is greater than 10 µM in the assay on HTT CJ mRNA and 1 to 10 µM in the assay on SMN2 CJ mRNA. In addition, the half-maximal activity concentration (AC50) in the assay on HTT mRNA (setting [1]) and in the assay with HTT mRNA (setting [2]) was greater than 10 µM in each case.
In the case of `CN1CC=C(c2ccc3c(=O)n(-c4ccc5nn(C)cc5c4)cnc3c2)CC1` [Compound 159, 7-(1-methyl-1,2,3,6-tetrahydropyridin-4-yl)-3-(2-methyl-2H-indazol-5-yl)quinazolin-4(3H)-one], the half-inhibitory concentration (IC50) in the assay on HTT CJ mRNA and in the assay on SMN2 CJ mRNA was greater than 10 µM in each case. Besides, the half-maximal activity concentration (AC50) in the assay on HTT mRNA (setting [1]) and with HTT mRNA (setting [2]) was greater than 10 µM in each case.
Take `Cc1cn2cc(-c3ccc4c(=O)n(C5CCNCC5)ncc4c3)nc2c(C)n1` [Compound 258]: the AC50 (usually the concentration giving half of the maximal activity seen) with HTT mRNA (setting [1]) was 1 to 10 µM; in the assay with HTT mRNA (setting [2]) it was greater than 10 µM.
Take `Cn1cc2cc(-n3cnc4cc(NC5CCNCC5)ccc4c3=O)ccc2n1` [Compound 162]: the half-inhibitory concentration (IC50) with HTT CJ mRNA and with SMN2 CJ mRNA was greater than 10 µM in each case. Besides, the AC50 in the assay on HTT mRNA (setting [1]) and in the assay on HTT mRNA (setting [2]) was greater than 10 µM each time.
In the case of `Cc1cc(-c2ccc3c(=O)n(C4CC(C)(C)NC(C)(C)C4)cnc3c2)cc2cn(C)nc12` [Compound 157, 7-(2,7-dimethyl-2H-indazol-5-yl)-3-(2,2,6,6-tetramethylpiperidin-4-yl)quinazolin-4(3H)-one hydrochloride], the IC50 is greater than 10 µM in the assay on HTT CJ mRNA and 1 to 10 µM with SMN2 CJ mRNA. The half-maximal activity concentration (AC50) in the assay on HTT mRNA (setting [1]) and with HTT mRNA (setting [2]) was greater than 10 µM each time.
As for `Cc1cc(-c2ccc3c(=O)n(C4CCN(C)CC4)cnc3c2)cc2cn(C)nc12` [Compound 156], the IC50 fell in the range of 1 to 10 µM with HTT CJ mRNA and 0.1 to 1 µM in the assay with SMN2 CJ mRNA. Further, the half-maximal activity concentration (AC50) in the assay on HTT mRNA (setting [1]) and in the assay on HTT mRNA (setting [2]) was 1 to 10 µM in each case.
